According to patent US20230355562A1, “METHODS FOR STABILIZING ATHEROSCLEROTIC PLAQUES USING LIPOXINS, RESOLVINS, AND ANALOGS THEREOF” (The Forsyth Institute, priority 2015, published 2023):

Assays:
[1] = system: atherosclerotic plaques; experiment: Plaque disruption by MRI before and after triggering in a rabbit model of atherosclerosis (cholesterol diet plus balloon injury); format: in vivo, New Zealand White (NZW) rabbits; conditions: for plaque stabilization: applied to both sides of the mandible on the gingiva every-other-day, high cholesterol diet and balloon injury to descending thoracic and abdominal aortic segments
Procedure: New Zealand White (NZW) rabbits (n=10) received cholesterol-enriched diet (1%) for 8 weeks to develop atherosclerosis. In addition, balloon injury was performed at 2 weeks to advance the atherosclerosis at the descending thoracic and abdominal aortic segments. The […] of cholesterol feeding was followed by a 4 week period of normal chow diet at the end of the experiment. Half of the rabbits were randomized in the experimental (9,12 benzo LXA4-treated) group and half in the control group.
Topical LXA4 (1 mg/ml) was applied on both side of the mandible on the gingiva every-other-day for the duration of the experiment. In vivo MRI images were taken at 12 weeks at before and after triggering. After euthanasia, the aortas were dissected for ex-vivo MRI and histology.

[2] = system: polymorphonuclear leukocyte (PMN) infiltration; conditions: in vivo, mouse model of acute inflammation; cited from earlier work

Compound | plaque stabilization [1] | segments that showed disruption (post-trigger image showed a luminal thrombus) of segments analyzed ([1]; treatment group, topical 1 mg/ml on gingiva, both sides of the mandible, every-other-day, in vivo MRI at 12 weeks, only one site in one rabbit) | levels of pro-inflammatory cytokines [2] | polymorphonuclear leukocyte (PMN) infiltration [2]
9,12 benzo LXA4 | sufficient to stabilize atherosclerotic plaques | 2/104 | significantly reducing | significantly reducing
CC[C@@H](O)/C=C/C=C\C[C@@H](O)/C=C/C=C/C=C\[C@@H](O)CCCC(=O)O [Resolvin E1] | sufficient to stabilize atherosclerotic plaques | – | – | –
